These results are taken from ChEMBL document CHEMBL1126872, “5-HT3 receptor antagonists. 3. Quinoline derivatives which may be effective in the therapy of irritable bowel syndrome” (J Med Chem, 1993).

Each structure is given as a SMILES string.

The target of the first test is Serotonin 3 (5-HT3) receptor. Put plainly: Binding affinity towards [3H]quipazine labeled 5-hydroxytryptamine 3 receptor sites in HG108-15.
Conditions: not given
In kind it is protein-complex assay, Cavia porcellus.
Take `CN1C2CCC1CC(NC(=O)c1cnc3ccccc3c1O)C2` (stereo not given): the affinity corresponds to a Ki of 1.5 nM.
Same read-out and setting: next, `CCCCn1c(=O)cc(C(=O)NC2CC3CCC(C2)N3C)c2ccccc21` (stereo not given): 60 nM; `CCCCn1c(=O)c(C(=O)NC2CC3CCC(C2)N3C)c(O)c2ccccc21` (stereo not given): 0.48 nM; `CCCCCCn1c(=O)cc(C(=O)OC2CC3CCC(C2)N3C)c2ccccc21` (stereo not given): 1.1 nM.
`CCCn1c(=O)cc(C(=O)OC2CC3CCC(C2)N3C)c2ccccc21` (stereo not given) registered a Ki of 0.45 nM. This Ki is about 2.4-fold lower than that of the compound before.
As to `CCCCOc1cc(C(=O)OC2CC3CCC(C2)N3C)c2ccccc2n1` (stereo not given), the affinity corresponds to a Ki of 0.39 nM.
With `CCn1c(=O)cc(C(=O)OC2CC3CCC(C2)N3C)c2ccccc21` (stereo not given), the affinity corresponds to a Ki of 1.1 nM.
Compound `CC(C)Cn1c(=O)cc(C(=O)OC2CC3CCC(C2)N3C)c2ccccc21` (stereo not given) displayed a Ki of 0.47 nM.
In the case of `CCCOc1cc(C(=O)NC2CC3CCC(C2)N3C)c2ccccc2n1` (stereo not given), the affinity corresponds to a Ki of 42 nM.
As to `CN1C2CCC1CC(OC(=O)c1cc(-c3ccccc3)nc3ccccc13)C2` (stereo not given), affinity was put at a Ki of 71 nM.
Same read-out and setting: next, `CCCCn1c(=O)c(C(=O)NC2CC3CCC(C2)N3C)c(O)c2cccnc21` (stereo not given): 6.4 nM; `Cc1nc2ccccc2c(O)c1C(=O)NC1CC2CCC(C1)N2C` (stereo not given): 7.2 nM; `CCCCn1c(=O)cc(C(=O)OC2CC3CCC(C2)N3C)c2ccccc21` (stereo not given): 0.68 nM.
Compound `CCCn1c(=O)cc(C(=O)NC2CC3CCC(C2)N3C)c2ccccc21` (stereo not given) gave a Ki of 67 nM.
`CC(C)n1c(=O)cc(C(=O)OC2CC3CCC(C2)N3C)c2ccccc21` (stereo not given) came in with a Ki of 0.32 nM.
`CCOc1cc(C(=O)OC2CC3CCC(C2)N3C)c2ccccc2n1` (stereo not given): the Ki was 0.88 nM.

The subject of the next test is Rattus norvegicus. Put plainly: Effective dose causing reduction of serotonin effect at 5 min administered iv in Bezold-Jarisch reflex test.
Conditions: not given
In kind it is functional.
Regarding `CN1C2CCC1CC(NC(=O)c1cnc3ccccc3c1O)C2` (stereo not given), the ED50 came to 0.0001 mg/kg.
Compound `CCCCn1c(=O)cc(C(=O)NC2CC3CCC(C2)N3C)c2ccccc21` (stereo not given) showed an ED50 of 0.37 mg/kg.
Same read-out and setting: next, `CCCCn1c(=O)c(C(=O)NC2CC3CCC(C2)N3C)c(O)c2ccccc21` (stereo not given): 0.29 mg/kg.
As to `CCCCCCn1c(=O)cc(C(=O)OC2CC3CCC(C2)N3C)c2ccccc21` (stereo not given), the ED50 turned out to be 0.086 mg/kg.
In turn, `CCCn1c(=O)cc(C(=O)OC2CC3CCC(C2)N3C)c2ccccc21` (stereo not given) came in with an ED50 of 0.33 mg/kg.
In the case of `CCCCOc1cc(C(=O)OC2CC3CCC(C2)N3C)c2ccccc2n1` (stereo not given), the ED50 is 0.2 mg/kg.
On to `CCn1c(=O)cc(C(=O)OC2CC3CCC(C2)N3C)c2ccccc21` (stereo not given), for which the ED50 came to 0.022 mg/kg.
`CC(C)Cn1c(=O)cc(C(=O)OC2CC3CCC(C2)N3C)c2ccccc21` (stereo not given) displayed an ED50 of 0.033 mg/kg.
`CCCOc1cc(C(=O)NC2CC3CCC(C2)N3C)c2ccccc2n1` (stereo not given): the ED50 was found to be 1.54 mg/kg.
The compound `CN1C2CCC1CC(OC(=O)c1cc(-c3ccccc3)nc3ccccc13)C2` (stereo not given) showed an ED50 of 0.34 mg/kg.
`CCCCn1c(=O)c(C(=O)NC2CC3CCC(C2)N3C)c(O)c2cccnc21` (stereo not given) came in with an ED50 of 0.29 mg/kg.
`Cc1nc2ccccc2c(O)c1C(=O)NC1CC2CCC(C1)N2C` (stereo not given) gave an ED50 of 0.015 mg/kg.
The same measure, in the same setting: next, `CCCCn1c(=O)cc(C(=O)OC2CC3CCC(C2)N3C)c2ccccc21` (stereo not given): 0.041 mg/kg; `CCCn1c(=O)cc(C(=O)NC2CC3CCC(C2)N3C)c2ccccc21` (stereo not given): 0.35 mg/kg.
For `CC(C)n1c(=O)cc(C(=O)OC2CC3CCC(C2)N3C)c2ccccc21` (stereo not given), the ED50 is 0.081 mg/kg.
`CCOc1cc(C(=O)OC2CC3CCC(C2)N3C)c2ccccc2n1` (stereo not given): the ED50 stood at 0.07 mg/kg.

The species entered for another test is Rattus norvegicus. Put plainly: Inhibition of wrap-restraint stress-induced colonic propulsion measured by the time required to expel a teflon ball inserted 3 cm into the rat colon. In kind it is functional. Particulars: read-out: ID50 (the source's name).
With `CN1C2CCC1CC(NC(=O)c1cnc3ccccc3c1O)C2` (stereo not given), the ED50 was 1.8 mg/kg.
As for `Cc1nccn1CC1CCc2c(c3ccccc3n2C)C1=O` (stereo not given) [ONDANSETRON], the ED50 turned out to be 1.6 mg/kg.
On the same count and under the same terms, next, `CC(C)Cn1c(=O)cc(C(=O)OC2CC3CCC(C2)N3C)c2ccccc21` (stereo not given): 0.01 mg/kg.

For another test, the species on record is Rattus norvegicus. Put plainly: animal or person. Particulars: sc, dose mg/kg 1-10, route subcutaneous, read-out: ID50 (the source's name). In kind it is functional.
Description: Inhibitory dose causing inhibition of increase in 5-HT induced defecation by sc administration 1 to 10 mg/kg
With `CN1C2CCC1CC(NC(=O)c1cnc3ccccc3c1O)C2` (stereo not given), the ED50 was determined as 0.69 mg/kg.
`CC(C)Cn1c(=O)cc(C(=O)OC2CC3CCC(C2)N3C)c2ccccc21` (stereo not given): the ED50 was 0.018 mg/kg.

Another test relates to Rattus norvegicus. Put plainly: Inhibitory dose causing inhibition of increase in 5-HT induced defecation by sc administration at 1 to 10 mg/kg. In kind it is functional. As to conditions: dose mg/kg 1-10, route subcutaneous, read-out: ID50 (the source's name).
Turning to `Cc1nccn1CC1CCc2c(c3ccccc3n2C)C1=O` (stereo not given) [ONDANSETRON], the ED50 stood at 0.53 mg/kg.

The subject of a further test is Rattus norvegicus. Put plainly: Inhibitory dose causing inhibition of increase in castor oil induced diarrhea by oral administration at 1 ml/rat. The test is classed as functional. As to conditions: read-out: ID50 (the source's name).
Regarding `CN1C2CCC1CC(NC(=O)c1cnc3ccccc3c1O)C2` (stereo not given), the ED50 came to 0.79 mg/kg.
On to `Cc1nccn1CC1CCc2c(c3ccccc3n2C)C1=O` (stereo not given) [ONDANSETRON], for which the ED50 came to 1.4 mg/kg.
In the case of `CC(C)Cn1c(=O)cc(C(=O)OC2CC3CCC(C2)N3C)c2ccccc21` (stereo not given), the ED50 worked out at 1.4 mg/kg.

The species named for the next test is Rattus norvegicus. Put plainly: animal or person. In kind it is functional. Particulars: sc, route subcutaneous, read-out: ID50 (the source's name).
Description: Inhibitory dose causing inhibition of increase in thyrotropin-releasing hormone (TRH) induced defecation by sc administration at 1 mg/kg
For `CN1C2CCC1CC(NC(=O)c1cnc3ccccc3c1O)C2` (stereo not given), the ED50 was determined as 0.053 mg/kg.
For `Cc1nccn1CC1CCc2c(c3ccccc3n2C)C1=O` (stereo not given) [ONDANSETRON], the ED50 came out at 0.31 mg/kg.
As for `CC(C)Cn1c(=O)cc(C(=O)OC2CC3CCC(C2)N3C)c2ccccc21` (stereo not given), the ED50 was 0.021 mg/kg.

Another test deals with Rattus norvegicus. Put plainly: Inhibitory dose causing inhibition of restraint stress induced defecation by oral administration. Particulars: read-out: ID50 (the source's name). In kind it is functional.
As to `CN1C2CCC1CC(NC(=O)c1cnc3ccccc3c1O)C2` (stereo not given), the ED50 was 1.4 mg/kg.
Consider `CCCCCCn1c(=O)cc(C(=O)OC2CC3CCC(C2)N3C)c2ccccc21` (stereo not given), for which the ED50 is 0.066 mg/kg.
Turning to `CCCn1c(=O)cc(C(=O)OC2CC3CCC(C2)N3C)c2ccccc21` (stereo not given), the ED50 worked out at 0.17 mg/kg.
The same measure, in the same setting: next, `CCn1c(=O)cc(C(=O)OC2CC3CCC(C2)N3C)c2ccccc21` (stereo not given): 0.052 mg/kg.
For the compound `Cc1nccn1CC1CCc2c(c3ccccc3n2C)C1=O` (stereo not given) [ONDANSETRON], the ED50 amounted to 0.027 mg/kg.
With `CC(C)Cn1c(=O)cc(C(=O)OC2CC3CCC(C2)N3C)c2ccccc21` (stereo not given), the ED50 is 0.013 mg/kg.
Consider `CCCCn1c(=O)cc(C(=O)OC2CC3CCC(C2)N3C)c2ccccc21` (stereo not given), for which the ED50 is 0.14 mg/kg.
Regarding `CC(C)n1c(=O)cc(C(=O)OC2CC3CCC(C2)N3C)c2ccccc21` (stereo not given), the ED50 is 0.04 mg/kg.

A further test deals with Rattus norvegicus. Put plainly: Inhibition of restraint stress induced defecation by oral administration (inhibition at 1 mg/kg).
Conditions: not given
In turn, `CCCCn1c(=O)c(C(=O)NC2CC3CCC(C2)N3C)c(O)c2ccccc21` (stereo not given) displayed an Inhibition % at 1 mg/kg of 61%.
For the compound `CCCCn1c(=O)c(C(=O)NC2CC3CCC(C2)N3C)c(O)c2cccnc21` (stereo not given), the Inhibition % at 1 mg/kg came out at 35%.
`Cc1nc2ccccc2c(O)c1C(=O)NC1CC2CCC(C1)N2C` (stereo not given) registered an Inhibition % at 1 mg/kg of 41%.

In the next test the test system is Rattus norvegicus. Put plainly: Inhibition of restraint stress induced defecation by oral administration (inhibition percent at 1 mg/kg).
Conditions: not given
Consider `CCCCn1c(=O)cc(C(=O)NC2CC3CCC(C2)N3C)c2ccccc21` (stereo not given), for which the Inhibition % at 1 mg/kg was found to be 47%.
The same measure, in the same setting: next, `CCCCOc1cc(C(=O)OC2CC3CCC(C2)N3C)c2ccccc2n1` (stereo not given): 64%; `CCCOc1cc(C(=O)NC2CC3CCC(C2)N3C)c2ccccc2n1` (stereo not given): 29%; `CCCn1c(=O)cc(C(=O)NC2CC3CCC(C2)N3C)c2ccccc21` (stereo not given): 12%.
Turning to `CCOc1cc(C(=O)OC2CC3CCC(C2)N3C)c2ccccc2n1` (stereo not given), the Inhibition % at 1 mg/kg was found to be 36%.
